# Article PMC8577999 (Slas Discovery, 2021)
# Experiments:
# Assay type in all cases: cell-based, SARS-CoV-2
# [1] = test system: SARS2-S UK variant (B.1.1.7); test: microbe, parasite or virus in culture; settings: Severe acute respiratory syndrome coronavirus 2, read-out: UK IC50
# [2] = test system: SARS2-S N501Y-D614G; settings: read-out: N501Y-D614G IC50
# [3] = test system: SARS2-S SA variant (B.1.351); test: microbe, parasite or virus in culture; settings: Severe acute respiratory syndrome coronavirus 2, read-out: SA IC50
# [4] = test system: SARS2-S D614G; settings: read-out: D614G IC50
smiles,measurement,setting,value
"CCCC[C@@H](C=O)NC(=O)[C@H](CC(C)C)NC(=O)OCc1ccccc1 [SR-914, calpeptin]",IC50,[1],34.7 nM
same,IC50,[2],8.98 nM
same,IC50,[3],6.58 nM
same,IC50,[4],11.5 nM
